From patent US9499550B2 (BRISTOL-MYERS SQUIBB COMPANY, priority 2012, dated 2016)
pEC50: −log10 of the molar value. Like-named read-outs stand apart in the source and are kept apart here.

Tests used:
[1] = test system: HCV genotype 1b (Con1) replicon in HUH-7 cells; assay: HCV replicon luciferase reporter assay, genotype 1b; type: cell-based; conditions: Hepatitis C virus, Huh-7, 72 h, 3 days incubation
How it was run: (§1)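 Replicon inhibition for both genotypes was measured as Renilla luciferase signal (EnduRen, 7.5 μM final, 2 h) after 3-day, 37° C exposure of replicon-bearing HUH-7 cells in 4% FCS DMEM, 0.5% DMSO. The 1b construct carries S1179I; the 1a H77 construct carries P1496L and S2204I. Twenty-point, 3-fold dilutions were fitted four-parametrically for EC50, and CC50 was taken from multiplexed Cell Titer-Blue.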

[2] = test system: HCV genotype 1a (H77 strain) replicon in HUH-7 cells; assay: HCV replicon luciferase reporter assay, genotype 1a; type: cell-based; conditions: Hepatitis C virus, Huh-7, 72 h, 3 days incubation
How it was run: as §1

[3] = HCV genotype 1b replicon luciferase, read-out: LE_1b (EC50, range)
[4] = HCV genotype 1a replicon luciferase, read-out: LE_1a (EC50, range)
[5] = HCV genotype 1b replicon luciferase assay, range class, read-out: LE_1b (EC50, range)
[6] = HCV genotype 1a replicon luciferase assay, range class, read-out: LE_1a (EC50, range)
[7] = GETYPE1B, HCV genotype 1b replicon luciferase, read-out: LE_1b (EC50, range)
[8] = GETYPE1A, HCV genotype 1a replicon luciferase, read-out: LE_1a (EC50, range)

| Compound | pEC50 [1, 3] | pEC50 [2, 4] | other results |
| --- | --- | --- | --- |
| CC[C@@H]1C[C@@H](C)CC/C=C\[C@@H]2C[C@@]2(C(=O)NS(=O)(=O)C2(C)CC2)NC(=O)[C@@H]2C[C@@H](Oc3nccc4c5c(ccc34)OCCO5)CN2C(=O)[C@H]1NC(=O)OC(C)(C)C(F)(F)F [Compound 5333, 1,1,1-trifluoro-2-methylpropan-2-yl((2R,6S,7R,9S,13aS,14aR,16aS,Z)-2-((2,3-dihydro-[1,4]dioxino[2,3-f]isoquinolin-7-yl)oxy)-7-ethyl-9-methyl-14a-(((1-methylcyclopropyl)sulfonyl)carbamoyl)-5,16-dioxo-1,2,3,5,6,7,8,9,10,11,13a,14,14a,15,16,16a-hexadecahydrocyclopropa[e]pyrrolo[1,2-a][1,4]diazacyclopentadecin-6-yl)carbamate] | 6.99 to 8.32 | 6.99 to 8.32 |  |
| COc1ccc2c(O[C@@H]3C[C@H]4C(=O)N[C@]5(C(=O)NS(=O)(=O)C6CC6)C[C@H]5/C=C\CC[C@@H](C)C[C@@H](C)[C@H](NC(=O)OC5(C)CC5)C(=O)N4C3)nccc2c1 [Compound 4054] | > 8.26 | > 8.26 |  |
| COc1cc(F)cc2c(O[C@@H]3C[C@H]4C(=O)N[C@]5(C(=O)NS(=O)(=O)C6(CF)CC6)C[C@H]5/C=C\CC[C@@H](C)C[C@@H](C)[C@H](NC(=O)OC(C)(C)C(F)(F)F)C(=O)N4C3)nccc12 [Compound 3176, 1,1,1-trifluoro-2-methylpropan-2-yl((2R,6S,7R,9R,13aS,14aR,16aS,Z)-2-((7-fluoro-5-methoxyisoquinolin-1-yl)oxy)-14a-(((1-(fluoromethyl)cyclopropyl)sulfonyl)carbamoyl)-7,9-dimethyl-5,16-dioxo-1,2,3,5,6,7,8,9,10,11,13a,14,14a,15,16,16a-hexadecahydrocyclopropa[e]pyrrolo[1,2-a][1,4]diazacyclopentadecin-6-yl)carbamate] |  |  | pEC50 [1, 5]: > 8.26; pEC50 [2, 6]: > 8.26 |
| C[C@H]1CC/C=C\[C@@H]2C[C@@]2(C(=O)NS(=O)(=O)C2(C)CC2)NC(=O)[C@@H]2C[C@@H](Oc3ncc(OCC(F)F)c4ccccc34)CN2C(=O)[C@@H](NC(=O)OC(C)(C)C(F)(F)F)[C@H](C)C1 [Compound 1029, 1,1,1-trifluoro-2-methylpropan-2-yl((2R,6S,7R,9S,13aS,14aR,16aS,Z)-2-((4-(2,2-difluoroethoxyl)isoquinolin-1-yl)oxy)-7,9-dimethyl-14a-(((1-methylcyclopropyl)sulfonyl)carbamoyl)-5,16-dioxo-1,2,3,5,6,7,8,9,10,11,13a,14,14a,15,16,16a-hexadecahydrocyclopropa[e]pyrrolo[1,2-a][1,4]diazacyclopentadecin-6-yl)carbamate] |  |  | pEC50 [1, 5]: 6.99 to 8.32; pEC50 [2, 6]: 6.99 to 8.32 |
| CC[C@@H]1C[C@H](C)CC/C=C\[C@@H]2C[C@@]2(C(=O)NS(=O)(=O)C2(C)CC2)NC(=O)[C@@H]2C[C@@H](Oc3ncc(N(CC)CC)c4cc(OC)ccc34)CN2C(=O)[C@H]1NC(=O)OC(C)(C)C(F)(F)F [Compound 4269] |  |  | pEC50 [1, 7]: 8.30 to 9.00; pEC50 [2, 8]: 8.30 to 9.00 |
| CCOc1nnc(O[C@@H]2C[C@H]3C(=O)N[C@]4(C(=O)NS(=O)(=O)C5CC5)C[C@H]4/C=C\CC[C@H](C)C[C@@H](CC)[C@H](NC(=O)OC(C)(C)C(F)(F)F)C(=O)N3C2)c2ccccc12 [Compound 5044, 1,1,1-trifluoro-2-methylpropan-2-yl((2R,6S,7R,9S,13aS,14aR,16aS,Z)-14a-((cyclopropylsulfonyl)carbamoyl)-2-((4-ethoxyphthalazin-1-yl)oxy)-7-ethyl-9-methyl-5,16-dioxo-1,2,3,5,6,7,8,9,10,11,13a,14,14a,15,16,16a-hexadecahydrocyclopropa[e]pyrrolo[1,2-a][1,4]diazacyclopentadecin-6-yl)carbamate] | 6.99 to 8.32 | 6.99 to 8.32 |  |
| CCOc1nnc(O[C@@H]2C[C@H]3C(=O)N[C@]4(C(=O)NS(=O)(=O)C5(C)CC5)C[C@H]4/C=C\CC[C@@H](C)C[C@@H](C)[C@H](NC(=O)OC(C)(C)C(F)(F)F)C(=O)N3C2)c2ccccc12 [Compound 5031, 1,1,1-trifluoro-2-methylpropan-2-yl((2R,6S,7R,9R,13aS,14aR,16aS,Z)-2-((4-ethoxyphthalazin-1-yl)oxy)-7,9-dimethyl-14a-(((1-methylcyclopropyl)sulfonyl)carbamoyl)-5,16-dioxo-1,2,3,5,6,7,8,9,10,11,13a,14,14a,15,16,16a-hexadecahydrocyclopropa[e]pyrrolo[1,2-a][1,4]diazacyclopentadecin-6-yl)carbamate] | > 8.26 | > 8.26 |  |
| CCOc1nnc(O[C@@H]2C[C@H]3C(=O)N[C@]4(C(=O)NS(=O)(=O)C5(C)CC5)C[C@H]4/C=C\CC[C@@H](C)C[C@@H](C)[C@H](NC(=O)OC(C)(C)C)C(=O)N3C2)c2ccccc12 [Compound 5029, tert-butyl ((2R,6S,7R,9R,13aS,14aR,16aS,Z)-2-((4-ethoxyphthalazin-1-yl)oxy)-7,9-dimethyl-14a-(((1-methylcyclopropyl)sulfonyl)carbamoyl)-5,16-dioxo-1,2,3,5,6,7,8,9,10,11,13a,14,14a,15,16,16a-hexadecahydrocyclopropa[e]pyrrolo[1,2-a][1,4]diazacyclopentadecin-6-yl)carbamate] | > 8.26 | > 8.26 |  |
| C[C@@H]1CC/C=C\[C@@H]2C[C@@]2(C(=O)NS(=O)(=O)C2(C)CC2)NC(=O)[C@@H]2C[C@@H](Oc3nccc4c5c(ccc34)N(C)CCO5)CN2C(=O)[C@@H](NC(=O)NC(C)(C)C)[C@H](C)C1 [Compound 5302, (2R,6S,7R,9R,13aS,14aR,16aS,Z)-6-(3-(tert-butyl)ureido)-7,9-dimethyl-2-((4-methyl-3,4-dihydro-2H-[1,4]oxazino[2,3-f]isoquinolin-7-yl)oxy)-N-((1-methylcyclopropyl)sulfonyl)-5,16-dioxo-1,2,3,5,6,7,8,9,10,11,13a,14,14a,15,16,16a-hexadecahydrocyclopropa[e]pyrrolo[1,2-a][1,4]diazacyclopentadecine-14a-carboxamide] | > 8.26 | > 8.26 |  |
| COc1ccc2c(O[C@@H]3C[C@H]4C(=O)N[C@]5(C(=O)NS(=O)(=O)C6(C)CC6)C[C@H]5/C=C\CC[C@@H](C)C[C@@H](C)[C@H](NC(=O)OC(C)(C)C(C)(F)F)C(=O)N4C3)cc(OC)nc2c1 [Compound 1214] |  |  | pEC50 [1, 7]: 9.30 to 10.00; pEC50 [2, 8]: 8.30 to 9.00 |
| CC[C@@H]1C[C@H](C)CC/C=C\[C@@H]2C[C@@]2(C(=O)NS(=O)(=O)C2(C)CC2)NC(=O)[C@@H]2C[C@@H](Oc3nccc4cc(OC)ccc34)CN2C(=O)[C@H]1NC(=O)OC(C)(C)C(F)(F)F [Compound 4182] |  |  | pEC50 [1, 7]: > 8.26; pEC50 [2, 8]: > 8.26 |
| CCCOc1cnc(O[C@@H]2C[C@H]3C(=O)N[C@]4(C(=O)NS(=O)(=O)C5(C)CC5)C[C@H]4/C=C\CC[C@@H](C)C[C@@H](C)[C@H](NC(=O)NC(C)(C)C(F)(F)F)C(=O)N3C2)c2ccccc12 [Compound 5087, (2R,6S,7R,9R,13aS,14aR,16aS,Z)-7,9-dimethyl-N-((1-methylcyclopropyl)sulfonyl)-5,16-dioxo-2-((4-propoxyisoquinolin-1-yl)oxy)-6-(3-(1,1,1-trifluoro-2-methylpropan-2-yl)ureido)-1,2,3,5,6,7,8,9,10,11,13a,14,14a,15,16,16a-hexadecahydrocyclopropa[e]pyrrolo[1,2-a][1,4]diazacyclopentadecine-14a-carboxamide] | > 8.26 | > 8.26 |  |
| CC[C@@H]1C[C@H](C)CC/C=C\[C@@H]2C[C@@]2(C(=O)NS(=O)(=O)C2(C)CC2)NC(=O)[C@@H]2C[C@@H](Oc3nccc4c5c(ccc34)OCCO5)CN2C(=O)[C@H]1NC(=O)OC(C)(C)C(F)F [Compound 5535, 1,1-difluoro-2-methylpropan-2-yl((2R,6S,7R,9R,13aS,14aR,16aS,Z)-2-((2,3-dihydro-[1,4]dioxino[2,3-f]isoquinolin-7-yl)oxy)-7-ethyl-9-methyl-14a-(((1-methylcyclopropyl)sulfonyl)carbamoyl)-5,16-dioxo-1,2,3,5,6,7,8,9,10,11,13a,14,14a,15,16,16a-hexadecahydrocyclopropa[e]pyrrolo[1,2-a][1,4]diazacyclopentadecin-6-yl)carbamate] | 8.30 to 9.00 | 7.46 to 8.30 |  |
| CC[C@@H]1C[C@@H](C)CC/C=C\[C@@H]2C[C@@]2(C(=O)NS(=O)(=O)C2CC2)NC(=O)[C@@H]2C[C@@H](Oc3nccc4c5c(ccc34)OCCO5)CN2C(=O)[C@H]1NC(=O)OC(C)(C)C(C)(F)F [Compound 5335, 3,3-difluoro-2-methylbutan-2-yl((2R,6S,7R,9S,13aS,14aR,16aS,Z)-14a-((cyclopropylsulfonyl)carbamoyl)-2-((2,3-dihydro-[1,4]dioxino[2,3-f]isoquinolin-7-yl)oxy)-7-ethyl-9-methyl-5,16-dioxo-1,2,3,5,6,7,8,9,10,11,13a,14,14a,15,16,16a-hexadecahydrocyclopropa[e]pyrrolo[1,2-a][1,4]diazacyclopentadecin-6-yl)carbamate] | > 8.26 | 6.99 to 8.32 | pEC50 ([1]; HCV genotype 1b replicon luciferase, read-out: LE_1b (EC50)): 8.69; pEC50 ([2]; HCV genotype 1a replicon luciferase, read-out: LE_1a (EC50)): 8.19 |
